{"source": "patent US20170362283A1", "about": "“NISIN-BASED COMPOUNDS AND USE THEREOF IN THE TREATMENT OF BACTERIAL INFECTIONS” (UNIVERSITEIT UTRECHT HOLDING B.V., priority 2015, published 2017)", "key": {"B. subtilis": {"test_system": "B. subtilis", "settings": "duplicate experiments"}, "E. coli": {"test_system": "E. coli", "settings": "duplicate experiments"}, "S. aureus": {"test_system": "S. aureus", "settings": "duplicate experiments"}, "MRSA WKZ2": {"test_system": "MRSA WKZ2", "format": "cell-based, Staphylococcus aureus", "settings": "duplicate experiments", "how_it_was_run": "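Broth dilution MIC following CLSI M07-A9; overnight TSB cultures diluted to 0.5×10^6 CFU in TSB and incubated with compound at 37° C for 16 hours. MIC read by visual inspection of growth.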"}, "[1]": {"test": "Lipid II-binding in model membranes (carboxyfluorescein efflux from LUVs)", "format": "biochemical", "settings": "concentration of 5 nM; CF-loaded DOPC LUVs with 0.2% lipid II", "description": "Large unilamellar vesicles (LUVs), composed of 1,2-dioleoyl-sn-glycero-3-phosphocholine (DOPC) spiked with 0.2% lipid II, were loaded with carboxyfluorescein (CF). The CF efflux was monitored by measuring the increase in fluorescence intensity at 515 nm, with excitation at 492 nm. In a cuvette, a solution (1 mL) of CF-loaded vesicles (20 μM final concentration) in buffer (Tris.HCl, pH 7.0 containing 100 mM NaCl) was prepared and the relevant final concentration of compounds (6), (10), and (12), and also compound (24) with R1-group (e), were added and the mixture was stirred for 1 min and the fluorescence was recorded (A0). After ca. 10 seconds, nisin (comparative compound B) was added (5 nM final concentration) and the fluorescence was followed until it stabilized, then recorded (Astable). Total membrane leakage was induced by the addition of Triton-X100 (final concentration 0.1%) and the fluorescence was recorded (Atotal). The percentile values were calculated by: […]"}, "erythrocytes": {"test_system": "erythrocytes", "test": "Hemolysis assay", "settings": "human erythrocytes, 1 h, at 32 μg/mL", "description": "Human whole blood was centrifuged at 600×g for 15 min and levels of plasma and hematocrit were marked on the tube. Plasma was removed and the erythrocytes washed 3× with PBS (centrifuging at 600×g for 15 mins). After discarding the supernatant, the packed cells were stored on ice. 100 μL of the peptides (128 μg/mL in PBS, 2% DMSO) as well as a control solution comprised of 2% DMSO in PBS were added to the top row of a polypropylene, round-bottom 96 well plate and 50 μL of PBS to the rest of the wells. The peptides and the DMSO control solutions were then diluted serially down the rows. 200 μL of the packed cells were added to PBS (10 mL) and 50 μL of this suspension was added to each well. A column with DI water containing 0.1% Triton X-100 was used as the 100% lysis control, and the column containing the serially-diluted PBS (1.0% DMSO) control served as the 0% lysis reference. The cells were incubated at 37° C. for 1 h. After incubation the plates were centrifuged (800×g, 5 min) and 25 μL of the supernatant was added to 100 μL DI water in a flat-bottom plate (polystyrene). The absorption at 414 nm was recorded to measure the amount of free hemoglobin."}, "E. faecium E745": {"test_system": "E. faecium E745", "test": "BioScreen growth assay for E. faecium E745", "format": "cell-based", "settings": "5 μM", "description": "(§1) A BioScreen C instrument (Oy Growth Curves AB, Helsinki, Finland) was used to monitor effects of the compounds (6), (10), and (12) and the effect of compound (24) with R1-group (e), or Comparative compound B (nisin) on E. faecium growth (each compound administered at a fixed concentration 5 μM). E. faecium strains were inoculated at an initial OD660 of 0.05 into 300 μl TSB containing 1% DMSO and 1% glucose or into the same medium containing the antibiotic compounds at a final concentration of 5 μM. […]\n(§2) The E. faecium strains used in these experiments are E. faecium E745 (vancomycin-ampicillin resistant hospital outbreak strain), E. faecium E980 (vancomycin-ampicillin susceptible human commensal isolate), E. Faecium E1133 (vancomycin-ampicillin resistant hospital outbreak strain), and E. faecium E1162 (vancomycin-susceptible ampicillin-resistant clinical isolate). The BioScreen growth assays for each strain was determined for the compounds (6), (10), (12) and also for compound (24) with R1-group (e) as well as nisin (Comparative compound B) and compared to non-treated strains, the results being shown in the Tables 9 to 12 below."}, "E. faecium E1162": {"test_system": "E. faecium E1162", "test": "BioScreen growth assay for E. faecium E1162", "format": "cell-based", "settings": "5 μM", "description": "as §1, §2"}}, "note": "Like-named read-outs stand apart in the source and are kept apart here.", "data": [{"substance": "nisin [Compound B]", "values": [{"measurement": "MIC values B. subtilis", "setting": "B. subtilis", "result": "0.625 to 2.5", "unit": "µg/mL"}, {"measurement": "MIC values E. coli", "setting": "E. coli", "result": ">10", "unit": "µg/mL"}, {"measurement": "MIC values S. aureus", "setting": "S. aureus", "result": 10, "unit": "µg/mL"}, {"measurement": "MIC values MRSA WKZ2", "setting": "MRSA WKZ2", "result": 10, "unit": "µg/mL"}, {"measurement": "leakage of the CF dye", "setting": "[1]", "result": "about 50%"}, {"measurement": "hemolysis", "setting": "erythrocytes", "result": "negligible hemolysis"}, {"measurement": "OD600", "setting": "E. faecium E745; time 0 h", "result": 0.01733}, {"measurement": "OD600", "setting": "E. faecium E745; time 4 h", "result": 0.01033}, {"measurement": "OD600", "setting": "E. faecium E745; time 8 h", "result": 0.01033}, {"measurement": "OD600", "setting": "E. faecium E745; time 12 h", "result": 0.01067}, {"measurement": "OD600", "setting": "E. faecium E745; time 16 h", "result": 0.008667}, {"measurement": "OD600", "setting": "E. faecium E1162; time 0 h", "result": 0.024}, {"measurement": "OD600", "setting": "E. faecium E1162; time 4 h", "result": 0.01533}, {"measurement": "OD600", "setting": "E. faecium E1162; time 8 h", "result": 0.01133}, {"measurement": "OD600", "setting": "E. faecium E1162; time 12 h", "result": 0.012}, {"measurement": "OD600", "setting": "E. faecium E1162; time 16 h", "result": 0.01033}, {"measurement": "MIC", "setting": "thirty VRE strains; VRE strain E0013, GBR, vanA", "result": 8, "unit": "µg/mL"}, {"measurement": "MIC", "setting": "thirty VRE strains; VRE strain E0072, NLD, vanA", "result": 2, "unit": "µg/mL"}, {"measurement": "MIC", "setting": "thirty VRE strains; VRE strain E0300, USA, vanA", "result": 8, "unit": "µg/mL"}, {"measurement": "MIC", "setting": "thirty VRE strains; VRE strain E0321, FRA, vanA", "result": 2, "unit": "µg/mL"}, {"measurement": "MIC", "setting": "thirty VRE strains; VRE strain E0333, ISR, vanA", "result": "4 to 8", "unit": "µg/mL"}, {"measurement": "MIC", "setting": "thirty VRE strains; VRE strain E0338, ITA, vanA", "result": 8, "unit": "µg/mL"}, {"measurement": "MIC", "setting": "thirty VRE strains; VRE strain E0341, GBR, vanA", "result": 4, "unit": "µg/mL"}, {"measurement": "MIC", "setting": "thirty VRE strains; VRE strain E0506, AUS, vanA", "result": "4 to 8", "unit": "µg/mL"}, {"measurement": "MIC", "setting": "thirty VRE strains; VRE strain E0745, NLD, vanA", "result": 4, "unit": "µg/mL"}, {"measurement": "MIC", "setting": "thirty VRE strains; VRE strain E1130, USA, vanA", "result": "4 to 8", "unit": "µg/mL"}, {"measurement": "MIC", "setting": "thirty VRE strains; VRE strain E1441, GRC, vanA", "result": 4, "unit": "µg/mL"}, {"measurement": "MIC", "setting": "thirty VRE strains; VRE strain E1679, BRA, vanA", "result": 4, "unit": "µg/mL"}, {"measurement": "MIC", "setting": "thirty VRE strains; VRE strain E1763, BEL, vanA", "result": 8, "unit": "µg/mL"}, {"measurement": "MIC", "setting": "thirty VRE strains; VRE strain E2297, USA, vanA", "result": 4, "unit": "µg/mL"}, {"measurement": "MIC", "setting": "thirty VRE strains; VRE strain E2359, SGP, vanB", "result": 8, "unit": "µg/mL"}, {"measurement": "MIC", "setting": "thirty VRE strains; VRE strain E2365, HUN, vanB", "result": "2 to 4", "unit": "µg/mL"}, {"measurement": "MIC", "setting": "thirty VRE strains; VRE strain E2373, SRB, vanA", "result": 4, "unit": "µg/mL"}, {"measurement": "MIC", "setting": "thirty VRE strains; VRE strain E6016, LVA, vanA", "result": 4, "unit": "µg/mL"}, {"measurement": "MIC", "setting": "thirty VRE strains; VRE strain E7312, NLD, vanA", "result": 4, "unit": "µg/mL"}, {"measurement": "MIC", "setting": "thirty VRE strains; VRE strain E7314, NLD, vanB", "result": "4 to 8", "unit": "µg/mL"}, {"measurement": "MIC", "setting": "thirty VRE strains; VRE strain E7319, NLD, vanA", "result": 4, "unit": "µg/mL"}, {"measurement": "MIC", "setting": "thirty VRE strains; VRE strain E7329, NLD, vanA", "result": 4, "unit": "µg/mL"}, {"measurement": "MIC", "setting": "thirty VRE strains; VRE strain E7401, NLD, vanB", "result": 8, "unit": "µg/mL"}, {"measurement": "MIC", "setting": "thirty VRE strains; VRE strain E7403, NLD, vanB", "result": 4, "unit": "µg/mL"}, {"measurement": "MIC", "setting": "thirty VRE strains; VRE strain E7413, NLD, vanA", "result": 4, "unit": "µg/mL"}, {"measurement": "MIC", "setting": "thirty VRE strains; VRE strain E7424, NLD, vanB", "result": 4, "unit": "µg/mL"}, {"measurement": "MIC", "setting": "thirty VRE strains; VRE strain E7464, NLD, vanB", "result": 4, "unit": "µg/mL"}, {"measurement": "MIC", "setting": "thirty VRE strains; VRE strain E8218, NLD, vanB", "result": 4, "unit": "µg/mL"}, {"measurement": "MIC", "setting": "thirty VRE strains; VRE strain E8235, NLD, vanB", "result": 4, "unit": "µg/mL"}, {"measurement": "MIC", "setting": "thirty VRE strains; VRE strain E8237, NLD, vanA", "result": 8, "unit": "µg/mL"}]}]}
